Experimental data taken from patent US20150307520A1, “NOVEL HETEROARYL AND HETEROCYCLE COMPOUNDS, COMPOSITIONS AND METHODS THEREOF” (HUTCHISON MEDIPHARMA LIMITED, priority 2012, published 2015).

Legend:
p110β/p85α = p110β/p85α (Homo sapiens, UniProt P42338); test: Transcreener KINASE Assay, kinase inhibition of p110β/p85α; format: biochemical; conditions: for PI3Kβ IH % @ 1 uM: 1 uM test compound; for IC50: read-out: PI3Kβ IC50
How it was run: (§1)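 Steps: compound (2% DMSO final) plus enzyme in HEPES/NaCl/EGTA/CHAPS/3 mM MgCl2/1 mM DTT buffer; start with PIP2/ATP addition (30 uM/10 uM solution); 80 min RT; add ADP detection mix, 60 min RT; read fluorescence polarization.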

PI3Kγ = PI3Kγ (Mus musculus, UniProt Q9JHG7); test: Acumen Assay - Raw264.7 p-AKT Assay (C5a stimulated); format: cell-based; conditions: Raw264.7 macrophage cells, compound 30 min, stimulated with 10 nM C5a for 5 min, p-AKT (Ser473) readout; read-out: PI3Kγ cell-C5a Raw264.7 IC50
Method: Acumen Assay—Raw264.7 p-AKT Assay
Acumen® eX3 (A Multilaser Microplate Cytometer For Enhanced High Content Screening): TTP LabTech
3×10^4 Raw264.7 macrophage cells were seeded into 96-well plates with DMEM+10% heat-inactivated FBS at […], 90 ul/well, overnight. After starvation for 3 hr at 37° C. under 5% CO2, Raw264.7 cells were treated with 10 ul/well various concentrations of compound or 0.5% DMSO for 30 min, and then stimulated with 10 ul/well 10 nM C5a for 5 min.
1.) Cells were fixed 110 μL of 4% pre-warmed Paraformaldehyde (2% final), incubate for 45 min at room temperature. 2.) Remove paraformaldehyde solution. Add 100 μL of ice-cold 0.1% Triton X-100 in PBS and leave at 4° C. for 30 min. 3.) Wash once in 100 μL PBS. 4.) Incubate with 100 μL blocking buffer (1% BSA, in PBS) for 2 hours at room temperature. 5.) Wash once for 5 min with 100 ul PBS. 6.) Incubate with 40 μL 1:200 dilution of phospho AKT (Ser473) rabbit antibody in antibody dilution buffer (0.1% BSA, in PBS) overnight at 4° C. 7.) Wash for 3 times for 10 min with 100 ul PBS. 8.) Incubate for 90 min at room temperature with 50 μL of goat anti-rabbit Alex488 antibody at a 1:1,000 dilution in antibody dilution buffer (0.1% BSA, in PBS). Cover plate in foil to keep out of light. 9.) Wash for 3 times for 10 min with 100 μL PBS. 10.) Add 50 μL of 1.5 μM Propidium Iodide solution to each well to determine cell number at a 1:1,000 dilution in PBS (stock: 1.5 mM). 11.) Incubate at room temperature for 30 min. 12.) Seal the plate with a black cover-seal (supplied with plate). 13.) Load the plate into the Acumen Explorer and scan with the appropriate instrument settings.

p110δ/p85α = p110δ/p85α (Homo sapiens, UniProt O00329); test: Transcreener KINASE Assay, kinase inhibition of p110δ/p85α; format: biochemical; conditions: for PI3Kδ IH % @ 1 uM: 1 uM test compound; for IC50: read-out: PI3Kδ IC50
Chain of p110δ/p85α (O00329 whole entry): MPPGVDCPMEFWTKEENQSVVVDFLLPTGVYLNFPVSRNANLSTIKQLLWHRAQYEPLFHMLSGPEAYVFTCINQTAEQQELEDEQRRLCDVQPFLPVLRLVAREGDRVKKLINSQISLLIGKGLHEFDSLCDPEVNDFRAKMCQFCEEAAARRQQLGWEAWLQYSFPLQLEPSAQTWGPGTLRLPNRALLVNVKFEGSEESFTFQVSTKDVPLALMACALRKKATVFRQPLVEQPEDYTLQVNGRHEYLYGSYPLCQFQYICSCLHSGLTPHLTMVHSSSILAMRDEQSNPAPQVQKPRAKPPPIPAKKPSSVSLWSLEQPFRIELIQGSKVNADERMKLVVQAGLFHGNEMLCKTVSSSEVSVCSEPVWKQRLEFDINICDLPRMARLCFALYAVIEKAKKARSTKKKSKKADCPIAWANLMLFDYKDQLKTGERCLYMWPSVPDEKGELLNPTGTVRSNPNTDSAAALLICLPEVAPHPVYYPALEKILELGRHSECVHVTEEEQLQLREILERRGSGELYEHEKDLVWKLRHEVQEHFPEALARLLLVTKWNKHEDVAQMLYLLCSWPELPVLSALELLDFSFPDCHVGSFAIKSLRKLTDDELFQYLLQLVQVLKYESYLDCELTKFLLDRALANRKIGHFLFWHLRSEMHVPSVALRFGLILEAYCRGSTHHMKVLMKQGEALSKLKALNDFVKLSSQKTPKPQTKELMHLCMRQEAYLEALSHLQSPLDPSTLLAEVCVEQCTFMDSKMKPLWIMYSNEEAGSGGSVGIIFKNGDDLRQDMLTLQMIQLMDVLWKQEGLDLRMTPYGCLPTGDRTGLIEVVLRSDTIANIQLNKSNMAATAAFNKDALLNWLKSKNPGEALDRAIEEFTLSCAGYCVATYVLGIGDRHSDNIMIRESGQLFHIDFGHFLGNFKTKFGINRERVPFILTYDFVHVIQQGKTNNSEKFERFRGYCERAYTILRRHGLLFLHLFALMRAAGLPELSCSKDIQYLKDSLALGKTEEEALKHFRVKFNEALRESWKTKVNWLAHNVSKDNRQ
Chain of p110δ/p85α (P27986 whole entry partner): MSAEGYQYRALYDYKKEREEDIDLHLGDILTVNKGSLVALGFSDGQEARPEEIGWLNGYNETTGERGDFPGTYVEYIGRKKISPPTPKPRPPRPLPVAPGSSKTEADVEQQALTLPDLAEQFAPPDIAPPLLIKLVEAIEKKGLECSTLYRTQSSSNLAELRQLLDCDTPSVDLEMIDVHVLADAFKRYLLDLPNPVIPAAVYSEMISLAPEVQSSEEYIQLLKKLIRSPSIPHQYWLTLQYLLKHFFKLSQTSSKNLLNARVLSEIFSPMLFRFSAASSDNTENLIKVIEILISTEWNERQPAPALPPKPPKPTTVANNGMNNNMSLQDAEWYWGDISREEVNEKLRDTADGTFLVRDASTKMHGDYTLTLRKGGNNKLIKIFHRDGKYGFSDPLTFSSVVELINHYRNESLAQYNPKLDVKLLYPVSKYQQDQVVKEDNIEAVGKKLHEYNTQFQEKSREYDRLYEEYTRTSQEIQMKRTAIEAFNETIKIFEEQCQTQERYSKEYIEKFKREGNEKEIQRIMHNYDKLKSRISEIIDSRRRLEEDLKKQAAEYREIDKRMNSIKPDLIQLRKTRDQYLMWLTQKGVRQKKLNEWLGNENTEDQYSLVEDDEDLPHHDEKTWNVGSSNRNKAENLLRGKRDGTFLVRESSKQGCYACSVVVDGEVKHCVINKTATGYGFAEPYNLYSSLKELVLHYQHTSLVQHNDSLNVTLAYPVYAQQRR
How it was run: as §1

p110γ = p110γ (Homo sapiens, UniProt P48736); test: Transcreener KINASE Assay, kinase inhibition of p110γ; format: biochemical; conditions: for PI3Kγ IH % @ 1 uM: 1 uM test compound; for IC50: read-out: PI3Kγ IC50
Chain of p110γ (P48736 whole entry, canonical isoform): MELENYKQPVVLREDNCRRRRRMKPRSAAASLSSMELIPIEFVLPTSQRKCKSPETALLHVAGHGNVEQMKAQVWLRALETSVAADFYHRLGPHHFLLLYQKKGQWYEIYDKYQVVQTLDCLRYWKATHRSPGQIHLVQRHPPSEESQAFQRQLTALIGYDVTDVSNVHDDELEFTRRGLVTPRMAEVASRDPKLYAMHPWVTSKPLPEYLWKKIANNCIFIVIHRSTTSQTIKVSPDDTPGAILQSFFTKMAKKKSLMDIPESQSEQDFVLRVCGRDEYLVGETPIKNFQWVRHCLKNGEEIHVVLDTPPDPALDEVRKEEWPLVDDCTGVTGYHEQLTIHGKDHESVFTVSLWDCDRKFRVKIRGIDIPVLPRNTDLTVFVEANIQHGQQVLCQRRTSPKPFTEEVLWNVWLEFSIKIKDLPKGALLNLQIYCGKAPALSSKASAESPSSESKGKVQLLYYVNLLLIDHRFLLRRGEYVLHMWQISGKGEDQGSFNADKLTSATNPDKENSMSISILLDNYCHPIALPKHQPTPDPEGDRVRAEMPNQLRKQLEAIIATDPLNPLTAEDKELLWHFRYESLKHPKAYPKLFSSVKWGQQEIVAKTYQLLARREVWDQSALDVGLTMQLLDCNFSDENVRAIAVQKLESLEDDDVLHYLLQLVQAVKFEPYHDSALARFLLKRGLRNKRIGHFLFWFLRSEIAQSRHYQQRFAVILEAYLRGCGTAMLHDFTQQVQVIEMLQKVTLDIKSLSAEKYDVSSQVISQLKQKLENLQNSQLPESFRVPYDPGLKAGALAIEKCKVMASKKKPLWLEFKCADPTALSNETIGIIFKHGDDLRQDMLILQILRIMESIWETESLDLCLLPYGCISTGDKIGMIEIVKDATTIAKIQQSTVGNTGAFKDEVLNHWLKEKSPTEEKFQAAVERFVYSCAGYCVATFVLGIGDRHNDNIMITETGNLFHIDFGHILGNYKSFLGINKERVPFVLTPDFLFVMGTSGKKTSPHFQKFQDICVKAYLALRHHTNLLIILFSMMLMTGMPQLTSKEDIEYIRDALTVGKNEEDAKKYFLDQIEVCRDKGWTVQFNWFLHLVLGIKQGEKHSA
How it was run: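 Recombinant PI3K isoform complexes were tested in a two-step endpoint ADP-detection assay. Kinase reaction ran 80 min at room temperature, followed by 60 min with ADP detection mix. Far-red competitive fluorescence polarization immunoassay read-out; IC50s fitted from the FP data.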

p110α/p85α = p110α/p85α (Homo sapiens, UniProt P42336); test: Transcreener KINASE Assay, kinase inhibition of p110α/p85α; format: biochemical; conditions: read-out: PI3Kα IC50
How it was run: as §1

Chain of p110β/p85α (P42338 whole entry): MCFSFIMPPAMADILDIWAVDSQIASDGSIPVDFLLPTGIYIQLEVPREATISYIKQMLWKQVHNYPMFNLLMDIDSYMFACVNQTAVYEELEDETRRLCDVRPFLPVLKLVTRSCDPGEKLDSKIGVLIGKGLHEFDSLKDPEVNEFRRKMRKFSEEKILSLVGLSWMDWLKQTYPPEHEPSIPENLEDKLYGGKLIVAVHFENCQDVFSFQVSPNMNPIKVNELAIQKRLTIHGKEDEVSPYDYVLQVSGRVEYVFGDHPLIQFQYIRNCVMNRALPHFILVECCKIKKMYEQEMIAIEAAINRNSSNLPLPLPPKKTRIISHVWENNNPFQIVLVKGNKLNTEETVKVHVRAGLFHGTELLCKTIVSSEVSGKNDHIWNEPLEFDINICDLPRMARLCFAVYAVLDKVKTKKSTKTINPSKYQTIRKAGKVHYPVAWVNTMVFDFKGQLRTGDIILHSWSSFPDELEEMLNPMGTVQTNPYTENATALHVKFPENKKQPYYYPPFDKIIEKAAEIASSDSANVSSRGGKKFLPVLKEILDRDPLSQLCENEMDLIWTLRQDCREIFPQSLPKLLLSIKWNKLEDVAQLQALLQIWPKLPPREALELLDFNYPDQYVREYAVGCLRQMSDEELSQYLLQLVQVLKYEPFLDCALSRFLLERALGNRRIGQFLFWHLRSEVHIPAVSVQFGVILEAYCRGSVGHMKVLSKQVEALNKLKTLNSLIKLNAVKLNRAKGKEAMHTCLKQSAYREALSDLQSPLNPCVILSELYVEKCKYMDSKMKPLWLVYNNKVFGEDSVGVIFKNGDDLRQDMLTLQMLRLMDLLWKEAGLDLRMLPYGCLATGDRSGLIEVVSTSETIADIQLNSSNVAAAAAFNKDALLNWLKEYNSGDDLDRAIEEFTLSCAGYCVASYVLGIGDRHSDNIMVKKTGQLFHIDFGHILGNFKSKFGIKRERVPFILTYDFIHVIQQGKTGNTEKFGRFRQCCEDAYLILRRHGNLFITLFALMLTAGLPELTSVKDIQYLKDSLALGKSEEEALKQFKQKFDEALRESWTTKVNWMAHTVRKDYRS
Chain of p110β/p85α (P27986 2-724 partner): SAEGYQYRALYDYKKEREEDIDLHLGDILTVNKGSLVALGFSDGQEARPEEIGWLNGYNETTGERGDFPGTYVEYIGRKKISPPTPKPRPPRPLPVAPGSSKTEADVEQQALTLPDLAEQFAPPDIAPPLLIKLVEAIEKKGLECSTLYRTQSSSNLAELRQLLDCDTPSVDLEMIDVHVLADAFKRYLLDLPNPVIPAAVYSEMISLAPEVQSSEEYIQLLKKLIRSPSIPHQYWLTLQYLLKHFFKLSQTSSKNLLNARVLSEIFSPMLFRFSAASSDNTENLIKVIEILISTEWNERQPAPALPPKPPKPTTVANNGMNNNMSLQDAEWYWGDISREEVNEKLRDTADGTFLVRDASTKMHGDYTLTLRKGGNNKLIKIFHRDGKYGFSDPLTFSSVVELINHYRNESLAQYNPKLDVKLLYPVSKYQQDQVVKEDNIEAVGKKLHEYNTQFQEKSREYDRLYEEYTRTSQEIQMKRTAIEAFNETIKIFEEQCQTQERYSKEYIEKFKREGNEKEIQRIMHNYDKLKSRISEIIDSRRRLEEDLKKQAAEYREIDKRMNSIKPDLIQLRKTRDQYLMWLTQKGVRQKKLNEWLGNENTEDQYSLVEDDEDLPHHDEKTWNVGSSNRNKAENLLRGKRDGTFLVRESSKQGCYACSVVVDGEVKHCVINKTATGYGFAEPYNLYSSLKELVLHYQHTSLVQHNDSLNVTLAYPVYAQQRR

Structure (SMILES) | PI3Kβ IH % @ 1 uM (p110β/p85α) [%] | IC50 (PI3Kγ) [nM] | PI3Kδ IH % @ 1 uM (p110δ/p85α) [%] | IC50 (p110δ/p85α) [nM] | PI3Kγ IH % @ 1 uM (p110γ) [%] | IC50 (p110γ) [nM] | IC50 (p110α/p85α) [nM] | IC50 (p110β/p85α) [nM]
CC1(C)CN(c2nc(N)ncc2C#N)C1c1nn2ccc(Cl)c2c(=O)n1-c1ccccc1 (stereo not shown) [Compound 471] | 47.1 | 96 | >100 | 3 | 92.4 | 7 |  | 
CC(=O)c1cnc(N)nc1N1C[C@H](C)[C@H]1c1nn2ccc(Cl)c2c(=O)n1-c1ccccn1 [Compound 473] | 67.3 | 36 | >100 | 2 | 97.0 | 10 | 921 | 454
Cc1nc(N)nc(N2CCC2c2nn3ccc(Cl)c3c(=O)n2-c2ccccn2)c1C#N (stereo not shown) [Compound 475] | 80.3 | 94 | 94.9 | 2 | 93.3 | 13 |  | 83
C[C@H]1CN(c2nc(N)nc(N)c2C#N)[C@@H]1c1nn2ccc(Cl)c2c(=O)n1-c1ccc(F)cc1 [Compound 480] | 93.6 | 11 | >100 | 3 | >100 | 2 | 648 | 81
C[C@H]1CN(c2nc(N)nc(N)c2C#N)[C@@H]1c1nn2ccc(Cl)c2c(=O)n1-c1ccccc1 [Compound 481] | 92.0 | 14 | >100 | 1 | >100 | 3 | 558 | 78
CC(=O)c1cnc(N)nc1N1CC[C@H]1c1nn2ccc(C(F)(F)F)c2c(=O)n1-c1ccccc1 [Compound 486, (S)-2-(1-(5-acetyl-2-aminopyrimidin-4-yl)azetidin-2-yl)-3-phenyl-5-(trifluoromethyl)pyrrolo[2,1-f][1,2,4]triazin-4(3H)-one] | 41.5 | 51 | >100 | 22 | >100 | 13 |  | 
Cc1nc(N)nc(N2CC[C@H]2c2nn3ccc(C(F)(F)F)c3c(=O)n2-c2ccccc2)c1C#N [Compound 487] | 64.7 | 46 | >100 | 6 | >100 | 8 |  | 
CC(=O)c1cnc(N)nc1N1C[C@H](C)[C@H]1c1nn2ccc(C(F)(F)F)c2c(=O)n1-c1ccccc1 [Compound 489] | 63.6 | 23 | >100 | 3 | >100 | 8 |  | 296
CC(=O)c1c(N)nc(N)nc1N1CCC1c1nn2ccc(Cl)c2c(=O)n1-c1ccccc1 (stereo not shown) [Compound 492] | 50.7 | 12 | 97.73 | 30 | >100 | 12 |  | 
CC(=O)c1c(N)nc(N)nc1N1C[C@H](C)C1c1nn2ccc(Cl)c2c(=O)n1-c1cccc(F)c1 (stereo partly shown) [Compound 493] | 73.6 | 8 | 99.7 | 6 | >100 | 8 |  | 250
Cc1cc(Cl)c2c(=O)n(-c3ccccc3)c([C@@H]3CCN3c3ncnc4[nH]cnc34)nn12 [Compound 496] | 18.3 | 2 | 34.2 |  | 17.2 |  |  | 
